{"source": "patent US11395815B2", "about": "“Compound for treating osteoarthritis” (Ascentage Pharma (Suzhou) Co., Ltd., priority 2018, dated 2022)", "key": {"mouse ACLT model [1]": {"test_system": "mouse ACLT model", "assay": "Weight bearing test in mouse osteoarthritis (ACLT) model", "type": "in vivo", "details": "for weight bearing % (weight on operated limb versus contralateral unoperated limb): 13 days after first dose", "from_the_text": "C57BL/6 mice aged 10 weeks were used for the study (n=12 for each group). Anterior cruciate ligament transection (ACLT) model was used to simulate the pathological condition in OA. To conduct ACLT surgery, the joint capsule of the right rear limb of mice was opened, and the anterior cruciate ligament (ACL) was transected with micro-scissors under a surgical microscope. After irrigation with saline to remove tissue debris, the skin incision was closed. Blank vehicle contained 5% Pluronic F68 (BASF, Germany) in 10 mM phosphate buffered saline (PBS, NaH2PH4/Na2HPO4) with pH adjusted to 7.4. Before each injection and sacrificing at the end point, the function of the limbs was assessed by a weight bearing test. All the mice were sacrificed for pathological evaluation and immunohistochemical staining 13 days after first dosing. Weight bearing test was conducted using a […] model 600MR (IITC Life Science, CA, USA). Briefly, after calibration of the equipment, mice were placed inside the chamber to stand with each hind paw on a scale, allowed to stand for 5-10 s until the readings were stable. The readings reflected the weight that was placed on each hind limb. The ACLT surgery caused osteoarthritis (OA) and decreased the weight placed on the hind limb. The results were expressed as the percentage of the weight placed on the operated limb versus the contralateral unoperated limb (weight bearing %). The value of weight bearing % is expected to be 100 in healthy mice, indicating the same weight placed on both limbs. The value of weight bearing % will decrease to 50˜60 after ACLT surgery due to less weight that could be placed on the operated limb than the unoperated limb. Alleviation of joint pain by […] should be reflected by an increased value of weight bearing %."}, "mouse ACLT model [2]": {"test_system": "mouse ACLT model", "assay": "Pathological evaluation of mouse joints (safranin O staining) in ACLT model", "type": "in vivo", "details": "intra-articular, joints taken 13 days after first dosing, safranin O sections", "from_the_text": "C57BL/6 mice aged 10 weeks were used for the study (n=12 for each group). Anterior cruciate ligament transection (ACLT) model was used to simulate the pathological condition in OA. To conduct ACLT surgery, the joint capsule of the right rear limb of mice was opened, and the anterior cruciate ligament (ACL) was transected with micro-scissors under a surgical microscope. After irrigation with saline to remove tissue debris, the skin incision was closed. Blank vehicle contained 5% Pluronic F68 (BASF, Germany) in 10 mM phosphate buffered saline (PBS, NaH2PH4/Na2HPO4) with pH adjusted to 7.4. Before each injection and sacrificing at the end point, the function of the limbs was assessed by a weight bearing test. All the mice were sacrificed for pathological evaluation and immunohistochemical staining 13 days after first dosing. Mouse joints were fixed in 4% paraformaldehyde overnight, dehydrated in increasing concentrations of ethanol and embedded in paraffin. Sections (5 μm) were cut from the paraffin blocks and applied to glass slides. The sections were stained for proteoglycans with aqueous safranin O (0.1%) for 5 min, and the specimens were then mounted."}}}
{"smiles": "CCN1[C@@H](C(=O)NC23CCC(C(=O)O)(CC2)CC3)[C@H](c2cccc(Cl)c2F)[C@]2(C(=O)Nc3cc(Cl)ccc32)C12CCCCC2", "note": "[compound A]", "values": [{"measurement": "weight bearing % (weight on operated limb versus contralateral unoperated limb)", "setting": "mouse ACLT model [1]; 0.01 μmol (1 mM, 10 uL) intra-articular, compared with untreated control (P<0.05) and vehicle control (P<0.0001)", "result": "significantly increased value of weight bearing %"}, {"measurement": "weight bearing % (weight on operated limb versus contralateral unoperated limb)", "setting": "mouse ACLT model [1]; 0.05 μmol (5 mM, 10 uL) intra-articular, P<0.05 vs 1 mM compound A group", "result": "further increase in the value of weight bearing %"}, {"measurement": "weight bearing % (weight on operated limb versus contralateral unoperated limb)", "setting": "mouse ACLT model [1]; C57BL/6 mice, ACLT, intra-articular injection, across doses 0.01 and 0.05 μmol", "result": "dose-dependent effect in improving weight bearing %"}, {"measurement": "joint pain", "setting": "mouse ACLT model [1]; mouse ACLT model, intra-articular injection", "result": "significantly relieved the joint pain"}, {"measurement": "cartilage development", "setting": "mouse ACLT model [2]", "result": "increased cartilage development"}, {"measurement": "pathological changes (articular cartilage erosion, proteoglycan loss, thinning and calcification of articular cartilage)", "setting": "mouse ACLT model [2]", "result": "attenuated"}]}
